Measurements reported in patent US8110570B2, “Modulators of acetyl-coenzyme A carboxylase and methods of use thereof” (Cropsolution, Inc., priority 2008, dated 2012).

Columns and labels:
hACC1 = target: T1, hACC1 (Homo sapiens, UniProt Q13085); experiment: [14C]bicarbonate incorporation assay, overall ACC activity; format: biochemical; conditions: recombinant hACC1, overall ACC activity
T1 construct: PCR primers were designed for full-length hACC1 and hACC2 using GenBank submissions AY237919 and AJ575592, respectively; His tag (C); made in house; host or cells: baculovirus, Sf9 insect cells
Method: (§1) In vitro IC50 values of human ACC were determined using recombinant enzyme produced by standard procedures. For example, full-length cDNAs for both the human isoforms (hACC1 and hACC2) were each cloned and expressed as a recombinant protein using a baculovirus system. Double stranded cDNA from human fetal liver (Quick-Clone cDNA, cat. #7171-1) was purchased from BD/Clontech (Mt. View, Calif.). PCR primers were designed for full-length hACC1 and hACC2 using GenBank submissions AY237919 and AJ575592, respectively. The Advantage GC 2 PCR kit (BD/Clontech) was used for amplification. The PCR products (about 7 Kb) were TOPO-cloned into the pCR4Blunt vector (Invitrogen, Carlsbad, Calif.), and 6 clones of each gene were isolated. […] Full length versions of the two cDNAs corresponding to their respective Genbank sequences were assembled in pBluescript SK+ (Stratagene, La Jolla, Calif.) by combining error-free fragments from the PCR clones. The resulting hACC1 clone, designated pCS35, has six silent nucleotide differences compared to Genbank accession AY237919. The final hACC2 clone, designated pCS36, has ten silent nucleotide differences compared to Genbank accession AJ575592. Primers were designed to PCR amplify the cDNAs along with the in-frame 3′-his tag sequences from the pET vector and TOPO-cloned the resulting products into the Gateway® entry vector pENTR/D-TOPO. The ACC2 primers were designed to delete amino acids 1-148 and add Met-Gly in front of Lys149 in the final product. The resulting entry clones were transferred to BaculoDirect™ linear DNA (Invitrogen corp.) using the Gateway® LR recombination reaction. The recombinant baculovirus DNA was transfected into insect cells and viral amplification was performed according to the manufacturer's protocols. For protein expression sf9 cells were infected with a P3 viral stock in the presence of 50 uM biotin. The cells were harvested after 48-72 hr, lysed by sonication, and the resulting extract was clarified by centrifugation. ACC in the crude extract was concentrated by ammonium sulfate precipitation (40% w/v) and purified by Ni^2+-NTA chromatography (Novagen) followed by anion exchange chromatography on a UNO-Q column (BioRad).
(§2) Overall ACC activity in the hACC preparations is measured by following incorporation of [^14C]bicarbonate into […] essentially as described (Thumpy and Wakil, J Biol Chem 260, 6318-6323 (1985). Briefly, the reaction mixture (50 μL) contains: 50 mM Hepes (pH7.4), 20 mM K-Citrate, 20 mM Mg-Acetate 1.5 mM MgSO4, 2 mM DTT, 2 mM acetyl-CoA, 12 mM NaHCO3, 0.2 mM NaH^14CO3 (˜50 mCi/mmol), 0.01% (v/v) Triton X-100, 0.75 mg/mL BSA, 1% (v/v) DMSO (with or without inhibitor), and 0.3 μg (hACC1) or 0.15 μg (hACC2) enzyme. Reactions are initiated by the addition of ATP to a final concentration 2 mM. After 10 minutes at 37° C., the reaction is stopped by the addition of 2N HCl (50 μL). The samples are evaporated in a hood overnight, resuspended in H2O (200 μL), and incorporated label is quantified by scintillation counting in scintillation cocktail (3 mL). Inhibition data are fit to dose-response curves and IC50 values are reported (i.e. the concentration of inhibitor that gives 50% inhibition).

[1] = system: MDA-MB-231 human breast cancer cells; experiment: MTT Cell Proliferation Assay; format: cell-based; conditions: 72 hours, read-out: Percent of Control MDA-MB-231
Method: (§3) The anti-proliferative activity of test compounds against human tumor cell lines is evaluated in vitro using the ATCC's MTT Cell Proliferation Assay (Catalog No. 30-100K). Cell lines are grown using media, serum, and culture conditions recommended by the ATCC. Stock cultures are allowed to grow to 70-80% confluence. Cells are seeded into 96-well culture plates at a predetermined density on day 0 in complete medium (0.1 mL). Plates are placed in a humidified incubator at 37° C. with 5% CO2 and 95% HEPA filtered room air for 24 hours. At this point compound (0.1 mL of 2× stock (in media)) is added to the indicated wells and the plates are returned to the incubator for 72 hours. Cell proliferation is measured by addition of MTT reagent to each well and incubated for an additional 4 hours, followed by addition of cell lysis/MTT solublization reagent and incubating overnight. […] Results are expressed as percent of control cells versus compound concentration. Compounds of the present invention, and salts thereof, were evaluated for anti-proliferative activity as described above.

[2] = system: A2780 human ovary cancer cells; experiment: MTT Cell Proliferation Assay; format: cell-based; conditions: 72 hours, read-out: Percent of Control A2780
Method: as §3

[3] = system: HCT-116 human colon cancer cells; experiment: MTT Cell Proliferation Assay; format: cell-based; conditions: 72 hours, read-out: Percent of Control HCT-116
Method: as §3

[4] = system: PC-3 human prostate cancer cells; experiment: MTT Cell Proliferation Assay; format: cell-based; conditions: 72 hours, read-out: Percent of Control PC-3
Method: as §3

hACC2 = target: T2, hACC2 (Homo sapiens, UniProt O00763); experiment: [14C]bicarbonate incorporation assay, overall ACC activity; format: biochemical; conditions: recombinant hACC2, overall ACC activity
T2 construct: delete amino acids 1-148 and add Met-Gly in front of Lys149 in the final product; His tag (C); made in house; host or cells: baculovirus, Sf9 insect cells
Method: as §1, §2

T2 sequence (O00763 149-2458 limits assumed): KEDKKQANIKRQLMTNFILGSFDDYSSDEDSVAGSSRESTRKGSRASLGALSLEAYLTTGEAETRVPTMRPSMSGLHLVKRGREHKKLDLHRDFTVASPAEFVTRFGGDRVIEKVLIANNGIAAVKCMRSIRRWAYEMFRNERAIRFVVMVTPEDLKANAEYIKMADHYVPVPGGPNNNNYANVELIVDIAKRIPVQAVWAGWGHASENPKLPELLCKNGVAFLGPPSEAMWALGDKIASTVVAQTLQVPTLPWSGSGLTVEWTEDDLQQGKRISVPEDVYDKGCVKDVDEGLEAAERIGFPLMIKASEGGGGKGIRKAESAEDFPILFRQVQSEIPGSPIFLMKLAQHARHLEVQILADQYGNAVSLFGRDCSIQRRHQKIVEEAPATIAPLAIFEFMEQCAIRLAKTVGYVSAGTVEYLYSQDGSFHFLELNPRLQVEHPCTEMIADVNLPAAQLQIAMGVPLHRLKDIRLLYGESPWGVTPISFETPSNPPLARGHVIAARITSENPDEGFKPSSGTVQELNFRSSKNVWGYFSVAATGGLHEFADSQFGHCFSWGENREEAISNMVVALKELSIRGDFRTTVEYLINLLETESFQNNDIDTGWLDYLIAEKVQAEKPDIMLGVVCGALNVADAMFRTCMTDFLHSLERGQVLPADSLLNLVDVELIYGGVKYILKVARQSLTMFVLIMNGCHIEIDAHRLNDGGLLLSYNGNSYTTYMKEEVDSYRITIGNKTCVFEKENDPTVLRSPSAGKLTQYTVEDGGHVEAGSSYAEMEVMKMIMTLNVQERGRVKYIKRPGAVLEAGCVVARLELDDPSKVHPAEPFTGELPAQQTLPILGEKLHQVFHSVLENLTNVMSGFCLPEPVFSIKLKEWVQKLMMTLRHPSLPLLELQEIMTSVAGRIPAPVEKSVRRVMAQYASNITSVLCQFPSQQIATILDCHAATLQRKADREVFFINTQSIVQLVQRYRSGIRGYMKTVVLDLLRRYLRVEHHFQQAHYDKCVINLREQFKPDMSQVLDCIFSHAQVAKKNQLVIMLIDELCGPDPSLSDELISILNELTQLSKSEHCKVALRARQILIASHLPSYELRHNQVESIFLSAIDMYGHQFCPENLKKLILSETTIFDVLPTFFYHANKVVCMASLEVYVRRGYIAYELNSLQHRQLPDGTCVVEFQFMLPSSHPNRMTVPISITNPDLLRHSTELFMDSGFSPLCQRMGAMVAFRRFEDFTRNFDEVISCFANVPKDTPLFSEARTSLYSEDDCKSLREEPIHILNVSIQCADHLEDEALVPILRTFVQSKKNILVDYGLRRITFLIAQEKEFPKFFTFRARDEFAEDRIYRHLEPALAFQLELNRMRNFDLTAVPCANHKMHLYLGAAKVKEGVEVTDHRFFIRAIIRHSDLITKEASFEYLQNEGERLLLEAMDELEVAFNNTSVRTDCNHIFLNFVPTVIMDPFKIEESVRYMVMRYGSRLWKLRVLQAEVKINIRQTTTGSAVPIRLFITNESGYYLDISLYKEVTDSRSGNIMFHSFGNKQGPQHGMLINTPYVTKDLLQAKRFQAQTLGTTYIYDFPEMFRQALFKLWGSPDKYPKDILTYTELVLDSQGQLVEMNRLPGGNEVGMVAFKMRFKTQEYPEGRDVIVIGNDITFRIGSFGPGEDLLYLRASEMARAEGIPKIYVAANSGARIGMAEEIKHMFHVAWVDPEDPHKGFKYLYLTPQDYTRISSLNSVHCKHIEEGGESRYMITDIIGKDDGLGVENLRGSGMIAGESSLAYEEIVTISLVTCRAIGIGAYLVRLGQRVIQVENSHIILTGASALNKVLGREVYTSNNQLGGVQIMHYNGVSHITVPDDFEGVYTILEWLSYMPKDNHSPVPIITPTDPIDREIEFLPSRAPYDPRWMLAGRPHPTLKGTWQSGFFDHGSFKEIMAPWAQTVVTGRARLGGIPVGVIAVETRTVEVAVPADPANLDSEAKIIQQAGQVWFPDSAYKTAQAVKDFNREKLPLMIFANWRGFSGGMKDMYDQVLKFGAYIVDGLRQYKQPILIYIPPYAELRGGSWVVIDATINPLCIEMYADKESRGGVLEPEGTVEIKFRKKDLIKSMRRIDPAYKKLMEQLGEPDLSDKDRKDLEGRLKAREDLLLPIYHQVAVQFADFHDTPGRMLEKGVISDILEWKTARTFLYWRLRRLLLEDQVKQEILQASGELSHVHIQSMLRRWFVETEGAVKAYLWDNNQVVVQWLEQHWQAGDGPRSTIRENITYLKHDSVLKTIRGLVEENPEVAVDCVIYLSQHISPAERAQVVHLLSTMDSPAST

Structure (SMILES)	IC50 (hACC1) [nM]	activity at 3.3 µM [1] [%]	activity at 10 µM [1] [%]	activity at 3.3 µM [2] [%]	activity at 10 µM [2] [%]	activity at 3.3 µM [3] [%]	activity at 10 µM [3] [%]	activity at 3.3 µM [4] [%]	activity at 10 µM [4] [%]	IC50 (hACC2) [nM]
COc1ccc2c(c1)C(=O)NC1(CCN(C(=O)c3cc(OC)c4cccc(OC)c4c3)CC1)N2 [Compound 187]	87	80.8	45.6	102	64.9	71	56.1	69.9	52.2	
COc1ccc2c(c1)C(=O)NC1(CCN(C(=O)c3[nH]c4c(OC)cccc4c3C)CC1)O2 [Compound 151]	82	82.9	50.1	92.7	64	78.6	61.8	86.1	68.5	96
COc1cc(C(=O)N2CCC3(CC2)NC(=O)c2cc(Br)ccc2N3)nc2c(SC)cccc12 [Compound 93]	430									1100
COc1ccc(OC)c2[nH]c(C(=O)N3CCC4(CC3)NC(=O)c3cc(Br)ccc3O4)cc12 [Compound 16]	260									200
COc1cc2c(OC)cccc2cc1C(=O)N1CCC2(CC1)NC(=O)c1cc(Br)ccc1N2 [Compound 90]	2200									1100
COc1cc(C(=O)N2CCC3(CC2)NC(=O)c2cc(NC(C)=O)ccc2O3)nc2c(SC)cccc12 [Compound 136]	75									55
COc1cc(C(=O)N2CCC3(CC2)NC(=O)c2cc(C)ccc2O3)nc2c(OC)cccc12 [Compound 137]	67									29
O=C1NC2(CCN(C(=O)c3ccc4[nH]cnc4c3)CC2)Oc2ccc(Br)cc21 [Compound 109, 1′-[(1H-benzimidazol-5-yl)carbonyl]-6-bromospiro[2H-1,3-benzoxazin-2,4′-piperidin]-4-(3H)-one]	600									2900
COC(=O)c1ccc2c(c1)C(=O)NC1(CCN(C(=O)c3cc(OC)c4cccc(OC)c4n3)CC1)O2 [Compound 201]	20	82.5	61.5	83.2	46.4	59.8	46.8	52.7	37.1	18
COc1ccc2c(c1)C(=O)NC1(CCN(C(=O)c3cc(OC)c4cccc(OC)c4c3)CC1)O2 [Compound 152, 1′-[(4,8-Dimethoxynaphth-2-yl)carbonyl]-6-methoxyspiro[2H-1-1,3-benzoxazin-2,4′-piperidin]-4-(3H)-one]	4	57	25.7	84.1	56.9	53.3	42	88		3
COc1cc(C(=O)N2CCC3(CC2)NC(=O)c2cc(Br)ccc2O3)nc2c(SC)cccc12 [Compound 133]	140									110
COc1cc2c(OC)cccc2cc1C(=O)N1CCC2(CC1)NC(=O)c1cc(NC(C)=O)ccc1O2 [Compound 132, 6-Acetamido-1′-[(3,5-dimethoxynaphth-2-yl)carbonyl]spiro[2H-1,3-benzoxazin-2,4′-piperidin]-4-(3H)-one]	800									300
CCOc1ccc2c(c1)C(=O)NC1(CCN(C(=O)c3cc(OC)c4cccc(SC)c4n3)CC1)O2 [Compound 149]	35									25
COc1cc(C(=O)N2CCC3(CC2)NC(=O)c2cc(Br)ccc2N3)nc2c(C(C)C)cccc12 [Compound 91]	2000									3700
O=C1NC2(CCN(C(=O)c3cccc(-c4cc[nH]n4)c3)CC2)Oc2ccc(Br)cc21 [Compound 103, 6-Bromo-1′-[3-(1H-pyrazol-3-yl)benzoyl]spiro[2H-1,3-benzoxazin-2,4′-piperidin]-4-(3H)-one]	1300									700
COc1cc2c(OC)cccc2cc1C(=O)N1CCC2(CC1)Oc1ccc(Br)cc1C(=O)N2C [Compound 138, 6-Bromo-1′-[(3,5-dimethoxynaphth-2-yl)carbonyl]-3-methylspiro[2H-1,3-benzoxazin-2,4′-piperidin]-4-(3H)-one]	1200									880
COc1ccc2c(c1)C(=O)NC1(CCN(C(=O)c3cc(OC)c4cccc(OC)c4n3)CC1)N2 [Compound 188]	260	70.3	28.7	94.8	51.4	90.3	68.2	62.6	19	
COc1cccc2ccc(C(=O)N3CCC4(CC3)NC(=O)c3cc(Br)ccc3O4)nc12 [Compound 44]	740									490
O=C1NC2(CCN(C(=O)c3ccc4[nH]nnc4c3)CC2)Oc2ccc(Br)cc21 [Compound 110, 1′-[(1H-benzotriazol-5-yl)carbonyl]-6-bromospiro[2H-1,3-benzoxazin-2,4′-piperidin]-4-(3H)-one]	6700									4600
COc1cc(C(=O)N2CCC3(CC2)NC(=O)c2cc(OC(C)C)ccc2O3)cc2[nH]ncc12 [Compound 230]	110									85
COc1cc(C(=O)N2CCC3(CC2)NC(=O)c2cc(C)c(C)cc2O3)cc2c(OC)cccc12 [Compound 155, 1′-[(4,8-Dimethoxynaphth-2-yl)carbonyl]-6,7-dimethylspiro[2H-1,3-benzoxazin-2,4′-piperidin]-4-(3H)-one]	5									4
COc1cccc2c(C)c(C(=O)N3CCC4(CC3)NC(=O)c3cc(Br)ccc3O4)[nH]c12 [Compound 23]	140									180
COc1cc(C(=O)N2CCC3(CC2)NC(=O)c2cc(Br)ccc2O3)nc2c(C3CC3)cccc12 [Compound 32]	180									110
COc1cc(C(=O)N2CCC3(CC2)NC(=O)c2cc4ccccc4cc2O3)cc2c(OC)cccc12 [Compound 160]	4									3
